# Where two headings read alike, the source gives them in different places.
# Key:
# [1] = target: T1, PGHS (cyclooxygenase activity) (Ovis aries, UniProt P05979); assay: IC50 for inactivation of cyclooxygenase activity of PGHS after 30 min incubation; assay type: biochemical, ram (seminal vesicles)
# T1 construct: PGHS was purified from ram seminal vesicles; from tissue; host or cells: ram seminal vesicles
# T1 sequence (P05979 25-600): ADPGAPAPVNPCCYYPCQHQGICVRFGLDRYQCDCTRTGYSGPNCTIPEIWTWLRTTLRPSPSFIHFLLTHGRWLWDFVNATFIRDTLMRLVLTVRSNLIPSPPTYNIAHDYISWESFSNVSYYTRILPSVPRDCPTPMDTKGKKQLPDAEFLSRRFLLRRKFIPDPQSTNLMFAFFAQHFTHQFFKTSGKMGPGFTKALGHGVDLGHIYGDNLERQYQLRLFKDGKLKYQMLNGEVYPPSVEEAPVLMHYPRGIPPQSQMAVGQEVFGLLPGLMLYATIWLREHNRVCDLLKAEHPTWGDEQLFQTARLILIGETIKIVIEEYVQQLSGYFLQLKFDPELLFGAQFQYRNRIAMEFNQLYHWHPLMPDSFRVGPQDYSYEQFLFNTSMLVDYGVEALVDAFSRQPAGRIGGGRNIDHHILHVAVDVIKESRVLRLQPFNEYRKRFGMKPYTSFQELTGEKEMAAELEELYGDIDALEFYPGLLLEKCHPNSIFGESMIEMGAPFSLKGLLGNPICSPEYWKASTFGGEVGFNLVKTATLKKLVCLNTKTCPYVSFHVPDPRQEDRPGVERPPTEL
# Description: (§1) PGHS was purified from ram seminal vesicles.
# (§2) Oxygen consumption was measured at 37° C. with a Gilson model 5/6 oxygraph equipped with a clark electrode and a thermostatted cuvette. Enzyme aliquots were added to 100 mM Tris-HCl at pH 8 containing 500 μM phenol and […] hematin. Oxygen uptake was initiated by the addition of 100 mM sodium arachidonate, and the initial reaction velocity was determined from the linear portion of the oxygen uptake curve.
# Varying inhibitor concentrations were incubated with reconstituted holo PGHS (final concentration in the oxygraph cell was 250 nM) at room temperature for 30 min. Aliquots of this incubation mixture were added to the oxygraph cell containing 100 mM Tris-HCl at pH 8 with 500 μm of phenol and 1 μM hematin. The reaction mixture was allowed to reconstitute for 1 min and the cyclooxygenase reaction was initiated by the addition of 100 mM sodium arachidonate. (Table 1)
# In all experiments the enzyme concentrations was 0.25 μM.
# [2] = target: T2, Holo Prostaglandin Endoperoxide Synthase (cyclooxygenase activity) (Ovis aries, UniProt P05979); assay: Instantaneous inactivation of the cyclooxygenase activity of holo PGHS (oxygen consumption); assay type: biochemical, ram (seminal vesicles); details: for IC50: enzyme 0.25 μM, oxygen consumption
# T2 construct: PGHS was purified from ram seminal vesicles; from tissue; host or cells: ram seminal vesicles
# T2 sequence (P05979 25-600): T1 sequence (P05979 25-600)
# Description: as §1, §2
# The reaction mixture was allowed to reconstitute for 1 min and then varying inhibitor concentration were added to the reaction mixture. As quickly as possible, the cyclooxygenase reaction was initiated by the addition of 100 mM sodium arachidonate. […]
# [3] = target: T3, holo PGHS (cyclooxygenase activity) (Ovis aries, UniProt P05979); assay: Time dependent inactivation of cyclooxygenase activity; assay type: biochemical, ram (seminal vesicles); details: enzyme 0.25 μM; for Oxygen Consumption, T = 0: control 221; for Oxygen Consumption, T = 30: T = 30 (min), control 210; for Oxygen Consumption, T = 60: control 211
# T3 sequence (P05979 25-600): T1 sequence (P05979 25-600)
# Description: as §1, §2
# A reaction mixture containing a 100 fold excess of the inhibitor(versus the enzyme concentration) (from a 10 mM stock in DMSO) and holo PGHS (5.3 mg/mL) (reconstituted with one equivalent of hematin) was incubated in a eppendorf tube at room temperature. Aliquots of the incubation mixture, at time intervals of t=0, 30 and 60 min were added to the oxygraph cell already containing 1.25 mL Tris HCL, 100 mM, pH 8, at 37° C., 500 μM phenol and 25 μL of 50 μM hematin. The cyclooxygenase reaction was initiated by the addition of 13 μL of 10 mM sodiumarachidonate in 10% MeOH (final concentration of AA was 100 μM). The oxygen consumption was measured from the linear portion of the O2 uptake curve.
# holo PGHS [4] = details: Ser 530 in sheep (Ser 529 in humans); cited from earlier work
# [5] = system: PGHS (cyclooxygenase activity); assay: Inactivation of cyclooxygenase activity of PGHS by cysteine specific reagents; assay type: biochemical
# From the text: (§3) Thiyl radicals (as reviewed in Shoeneich, 1992) can be potentially generated from cysteines present in PGHS, in the catabolism of arachidonic acid. […] Site-directed mutagenesis experiments to mutate these cysteines to serines and their corresponding effect on prostaglandin biosynthesis are presently being carried out.
# [6] = system: PGHS (peroxidase activity); assay: Inactivation of peroxidase activity of PGHS by cysteine specific reagents; assay type: biochemical
# From the text: as §3
# holo PGHS [7] = assay: Inactivation of holo PGHS; assay type: biochemical
# From the text: as §3
# mouse = details: doses much below those required by indomethacin; cited from earlier work
# guinea pigs = details: doses much below those required by indomethacin; cited from earlier work
# cyclooxygenase = details: cited from earlier work
# [8] = target: T4, cyclooxygenase activity of PGHS (Ovis aries, UniProt P05979); assay: Inhibition of cyclooxygenase activity of PGHS by analog 2; assay type: biochemical
# T4 sequence (P05979 25-600): T1 sequence (P05979 25-600)
# From the text: Preliminary structure-activity studies on compounds with structural similarity indicate the position of oxygen on the omega side chain and the stereochemistry on the oxobicycloheptane ring as the governing factors in the inhibition.
# The basis for the inhibitory activity of a given NSAID depends on the interaction of the NSAID with the active site of the enzyme it inhibits. A working model for the active site of fatty acid cyclooxygenase with the pattern recognition of known inhibitors as well as conformational minimizations of the natural substrate AA has been constructed. The Squibb group recently described a novel series of 7-oxabicycloheptylpro stanoic acid derivatives that inhibit AA-induced platelet aggregation and AA oxygenation by platelet and bovine seminal microsomes. […]
# PGHS protein = assay: Mechanistic studies: conformational change in the PGHS protein
# [9] = cited from earlier work
# [10] = target: T5, holo PGHS (peroxidase activity) (Ovis aries, UniProt P05979); assay: Instantaneous inactivation of peroxidase activity (guaiacol oxidation); assay type: biochemical, ram (seminal vesicles); details: for IC50: enzyme 0.25 μM
# T5 construct: PGHS was purified from ram seminal vesicles; from tissue; host or cells: ram seminal vesicles
# T5 sequence (P05979 25-600): T1 sequence (P05979 25-600)
# Description: as §1
# Enzyme aliquots were added to 100 mM Tris HCl (pH 8) containing […] heme, 500 μM guaiacol in disposible cuvettes. Reaction was initiated by the addition of 400 μM H2 O2.
# This reaction mixture was treated with a given concentration of the inhibitor and then as quickly as possible the peroxidase reaction was initiated by the addition of 0.4 mM H2 O2. The initial rates of oxidation were measured for 20 sec at a repeat rate of 1 second. (Table 4)
# [11] = read-out: IC50 (aspirin analogs 44 and 45)
# [12] = enzyme 0.25 μM, 30 min incubation with inhibitor, read-out: IC50 for inactivation of cyclooxygenase activity of PGHS
molecule,measurement,setting,value
CC(=O)Oc1cc(N2C(=O)C=CC2=O)ccc1C(=O)O [Compound 44],"Inhibition of cyclooxygenase at 200 μM (footnote a, Table 2)","[1]; 200 μM, 30 min incubation",No significant inhibition observed
same,IC50,[1]; [11],> 200 µM
2-[2-(N-Maleimidoethoxy)]benzoic acid [Compound 7],IC50,[2],140 µM
same,"Oxygen Consumption, T = 0",[3]; inhibitor 16 μM,180 µM/min
same,"Oxygen Consumption, T = 30",[3]; inhibitor 16 μM,27 µM/min
same,"Oxygen Consumption, T = 60 (symbol)","[3]; inhibitor 16 μM, T = 60 (min)",--b
CC(=O)Oc1ccccc1C(=O)O [Aspirin],acylation of Ser 530 of PGHS,holo PGHS [4],inactivates the cyclooxygenase activity of holo PGHS by regioselective acylation of Ser 530
N-11-(Maleimido)undecanoic acid [Compound 5],IC50,[2],37 µM
same,"Oxygen Consumption, T = 0",[3]; inhibitor 10 μM,207 µM/min
same,"Oxygen Consumption, T = 30",[3]; inhibitor 10 μM,178 µM/min
same,"Oxygen Consumption, T = 60","[3]; inhibitor 10 μM, T = 60 (min)",81 µM/min
O=C(O)c1ccc(CN2C(=O)C=CC2=O)cc1 [Compound 12],IC50,[1]; [12],12 µM
CCCCCCCCN1C(=O)C=CC1=O [Compound 8],IC50,[1]; [12],250 µM
"CCN1C(=O)C=CC1=O [NEM, N-ethylmaleimide]",inactivation of cyclooxygenase activity by cysteine specific reagent,[5],time- and concentration-dependent inactivation
same,inactivation of peroxidase activity by cysteine specific reagent,[6],time- and concentration-dependent inactivation
same,inactivation of holo PGHS,holo PGHS [7],inactivates holo
CC(=O)Oc1ccc(N2C(=O)C=CC2=O)cc1C(=O)O [Compound 45],IC50,[1]; [11],29 µM
CCCCCCOCC1C2CCC(O2)C1CC=CCCCC(=O)O (centres unmarked) [analog 1],prevention of AA-induced sudden death,mouse,prevents AA-induced sudden death in the mouse
same,prevention of AA-induced changes in lung mechanics,guinea pigs,AA-induced changes in lung mechanics in guinea pigs at doses much below those required for similar effects by indomethacin
same,inhibition of cyclooxygenase activity in vitro,cyclooxygenase,inhibition of cyclooxygenase activity in vitro
O=C(O)c1ccccc1OCCN1C(=O)C=CC1=O [Compound 13],IC50,[1]; [12],40 µM
CCCCCCCCCCN1C(=O)C=CC1=O [Compound 10],IC50,[1]; [12],27 µM
CCCCCCCCCN1C(=O)C=CC1=O [Compound 9],IC50,[1]; [12],50 µM
CCCCCCOCC1C2CCC(O2)C1CC=CCCC(C)(C)C(=O)O (centres unmarked) [analog 2],time-dependent inhibition of cyclooxygenase activity,[8],potent time-dependent inhibitor
same,IC50,[8]; enzyme concentration 140 nM,80 nM
same,IC100,"[8]; enzyme concentration 140 nM, read-out: concentration with complete inhibition",0.15 µM
same,conformational change in the PGHS protein,PGHS protein,induces a conformational change in the PGHS protein
same,inhibition of cyclooxygenase activity in vitro,cyclooxygenase,displays the same activities as analog 1
same,"duration of action in vivo, relative to analog 1",[9],longer duration of action in vivo
"O=C(O)CCCCCCCN1C(=O)CCC1=O [Compound 39, N-8-(Succinimido)octanoic acid]",instantaneous inactivation of cyclooxygenase activity,[2],did not inactivate PGHS
same,inhibition of the enzyme at 500 fold excess,[2]; 500 fold excess,"did not inhibit the enzyme, even at a 500 fold excess"
same,instantaneous inactivation of cyclooxygenase activity,[2]; listed as corresponding succinimide,did not display any inactivation at analogous concentrations and at higher concentrations
"O=C(O)c1ccccc1OCCN1C(=O)C=CC1=O [Compound 6 (Example 1), 2-[2-(N-Maleimidoethoxy)]benzoic acid]",instantaneous inactivation of cyclooxygenase activity,[2],failure
"O=C(O)CCCCCCCCN1C(=O)C=CC1=O [Compound 4, 9-(Maleimido)-1-nonanoic acid]",IC50,[2],26 µM
same,"Oxygen Consumption, T = 0",[3]; inhibitor 10 μM,203 µM/min
same,"Oxygen Consumption, T = 30",[3]; inhibitor 10 μM,121 µM/min
same,"Oxygen Consumption, T = 60","[3]; inhibitor 10 μM, T = 60 (min)",68 µM/min
CC(=O)n1ccnc1 [N-acetylimidazole],acylation of Ser 530 of PGHS,holo PGHS [4],did not result in regioselective acetylation
"O=C(O)CCCCCN1C(=O)C=CC1=O [Compound 1, N-6-(Maleimido)hexanoic acid]",IC50,[2],> 800 µM
same,"Oxygen Consumption, T = 0",[3]; inhibitor 16 μM,212 µM/min
same,"Oxygen Consumption, T = 30",[3]; inhibitor 16 μM,205 µM/min
same,"Oxygen Consumption, T = 60","[3]; inhibitor 16 μM, T = 60 (min)",204 µM/min
same,IC50,[10],> 800 µM
"O=C(O)CCCCCCN1C(=O)C=CC1=O [Compound 2, N-7-(Maleimido)heptanoic acid]",IC50,[2],570 µM
same,"Oxygen Consumption, T = 0",[3]; inhibitor 16 μM,195 µM/min
same,"Oxygen Consumption, T = 30",[3]; inhibitor 16 μM,142 µM/min
same,"Oxygen Consumption, T = 60","[3]; inhibitor 16 μM, T = 60 (min)",106 µM/min
same,IC50,[10],> 800 µM
same,remaining activity at 800 µM,"[10]; pH 8, at 800 μM",81%
Cc1ccccc1CN1C(=O)C=CC1=O [Compound 11],IC50,[1]; [12],9 µM

# Source: patent US5475021A, “Compounds and compositions for inhibition of cyclooxygenase activity” (Vanderbilt University, priority 1993, dated 1995)
